Assay [1] concerns GPR68. Nature of the assay: β-arrestin recruitment (Tango). In kind it is cell-based, human. The procedure:
The peptide library was additionally screened against 120 GPCR targets in parallel, including all available orphan receptors and 27 known class A peptide receptors using the Tango assay platform ([Kroeze et al., 2015]). Briefly, HTLA cells (a HEK293 cell line stably expressing a tTA-dependent luciferase reporter and a β-arrestin2-TEV fusion gene) were plated 10,000 cells/well in poly-L-lysine–coated clear-bottom white 384-well plates in DMEM supplemented with 10% FBS, 100 U/ml penicillin and 100 μg/ml streptomycin, 2 μg/ml puromycin and 100 μg/ml hygromycin B. 24 hr later, cells were transfected with Tango GPCR constructs using the calcium phosphate method ([Jordan et al., 1996]). The next day, culture medium was changed to DMEM + 1% dFBS and 10 μM peptides were added for overnight stimulation. Bright-Glo solution (Promega) was incubated for 15–20 min at room temperature, and luminescence was counted using a Trilux luminescence counter (Wallac).
For subsequent peptide validation experiments using Tango assays, HTLA cells were transiently transfected in 10 cm dishes with the receptor of interest using polyethylenimine (PEI) ([Longo et al., 2013]). […] Assays were performed as described above, with luminescence measured using an EnSpire 2300 Multimode plate reader (PerkinElmer). Luminescence counts were exported into Excel and were analyzed using GraphPad Prism 7.
(Activated receptors often draw arrestin, which recruitment assays turn into a signal.)

For assay [2], the target named is GPR68 (Homo sapiens, UniProt Q15743). Nature of the assay: Dynamic mass redistribution (DMR), concentration-response. In kind it is cell-based. Also noted: hIL-2Ra signal peptide (N); expressed in transfected cells. Particulars: GPR68, mean, SEM and n; for EC50: read-out: pEC50, DMR (AUC) (converted). In outline: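 Doxycycline-induced (0.1 μg/ml) SNAP-tagged receptors in TREx 293 cells, equilibrated 90 min at 22°C in HEPES-buffered HBSS, pH 7.4, with 0.1% DMSO. Peptide-evoked optical wavelength shift recorded for 60 min at 22°C, buffer/solvent corrected and quantified as area under the curve. Mean ± SEM of at least 3 independent experiments.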

Positions of bridges follow the written chain, without caps; N, C: chain ends. Residues, ends and D or L forms follow the SMILES beside them.

Chain of GPR68 (Homo sapiens, UniProt Q15743) (Q15743 2-365 limits assumed): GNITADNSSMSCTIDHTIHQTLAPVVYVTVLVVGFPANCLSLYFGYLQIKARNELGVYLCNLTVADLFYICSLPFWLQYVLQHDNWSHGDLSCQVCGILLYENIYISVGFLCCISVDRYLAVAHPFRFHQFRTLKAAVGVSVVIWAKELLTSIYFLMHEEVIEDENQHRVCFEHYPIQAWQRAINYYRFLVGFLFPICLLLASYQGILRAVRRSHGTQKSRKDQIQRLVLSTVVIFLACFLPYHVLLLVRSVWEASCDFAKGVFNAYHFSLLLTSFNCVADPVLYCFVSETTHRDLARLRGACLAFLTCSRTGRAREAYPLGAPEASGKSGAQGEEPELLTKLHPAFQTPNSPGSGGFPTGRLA

With `CC[C@H](C)[C@H](NC(=O)[C@H](CCCNC(=N)N)NC(=O)[C@H](C)NC(=O)CNC(=O)[C@H](CCCCN)NC(=O)[C@H](CCCNC(=N)N)NC(=O)[C@@H](NC(=O)[C@H](C)NC(=O)[C@@H]1CSSC[C@H](NC(=O)[C@H](CCSC)NC(=O)[C@@H]2CCCN2C(=O)[C@@H](NC(=O)[C@H](CCC(N)=O)NC(=O)CNC(=O)[C@@H](N)Cc2ccc(O)cc2)C(C)C)C(=O)N[C@@H](CC(=O)O)C(=O)N[C@@H](C)C(=O)NCC(=O)N[C@@H](CCC(=O)O)C(=O)N[C@@H](CCC(N)=O)C(=O)N1)C(C)C)C(N)=O` [CART(42-89)_(9-28)] (H-YGQVPMCDAGEQCAVRKGARI-NH2; disulfide 7-13; N-terminus assumed), the “Comment on response, Tango (fold over basal); Emax and pEC50 n.d.” value in the assay on GPR68 [1] is reported as “No response”. Besides, at GPR68 [2], the “Emax, DMR (AUC)” value turned out to be 944453.3 and the EC50 is 1.05 µM.
The matching figures for `CC(C)C[C@H](NC(=O)[C@@H]1CCCN1C(=O)[C@H](Cc1ccccc1)NC(=O)[C@H](C)NC(=O)[C@H](CCC(=O)O)NC(=O)[C@H](C)NC(=O)[C@H](CO)NC(=O)[C@H](CCC(=O)O)NC(=O)[C@H](CC(N)=O)NC(=O)[C@H](CCC(=O)O)NC(=O)[C@H](C)NC(=O)[C@@H](NC(=O)[C@H](CC(N)=O)NC(=O)[C@@H]1CCCN1C(=O)[C@H](Cc1ccc(O)cc1)NC(=O)[C@@H](NC(=O)[C@H](CCCCN)NC(=O)[C@@H](NC(=O)[C@@H]1CCCN1C(=O)[C@H](CCCNC(=N)N)NC(=O)[C@@H](N)CCCNC(=N)N)C(C)C)C(C)C)C(C)C)C(=O)N[C@@H](CCC(=O)O)C(=O)N[C@@H](Cc1ccccc1)C(=O)O` [Corticotropin_(17-40)] (H-RRPVKVYPNVAENESAEAFPLEF-OH; N-terminus and C-terminus assumed): “No response”, 781397.0 and 1.29 µM.

(Values after article PMC6838683, “Discovery of Human Signaling Systems: Pairing Peptides to G Protein-Coupled Receptors” (Cell, 2019).)
